What was measured:
carmine spider mite = experiment: bioactivity test against carmine spider mite, airbrush spray; format: in vivo; details: for pest or weed control at 600 µg/mL / Insecticidal activity against carmine spider mite (% ): contrastive test; for pest or weed control at 600 µg/mL: read-out: Insecticidal activity against carmine spider mite (% )
Procedure, shortened: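 Broadbean seedlings infested with adult mites were sprayed with compound (acetone/methanol stock diluted in 0.1% Tween 80 water) by airbrush at 0.7 kg/cm^2, 0.5 ml. Three replicates were run. Mortality was scored after 72 hrs.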

armyworm = experiment: bioactivity test against armyworm, airbrush spray; format: in vivo; details: for pest or weed control at 600 µg/mL: 600 mg/L, read-out: Insecticidal activity against armyworm (%)
Diamond back moth = experiment: insecticidal activity against diamond back moth, airbrush spray; format: in vivo; details: for pest or weed control at 600 µg/mL: 600 mg/L
Procedure, shortened: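 Airbrush leaf-disc spray test: both faces of 2 cm cabbage discs received 0.5 ml of test solution at 0.7 kg/cm^2. Solutions were made in acetone:methanol (1:1) and brought to concentration with 0.1% Tween 80 in water. Ten second-instar larvae per disc, triplicates, were held at 25° C and 60˜70% R.H., with mortality recorded at 72 hrs.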

[1] = tested on: Green peach aphids (Myzus Persicae Sulzer); experiment: bioactivity test against green peach aphid, airbrush foliar spray; format: in vivo; details: for pest or weed control at 600 µg/mL / Insecticidal activity against peach aphid (%): contrastive test; for pest or weed control at 600 µg/mL: read-out: Insecticidal activity against peach aphid (%)
Procedure, shortened: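 Death rate was scored at 48 hrs, held at 25±1 C and 60±5% RH, following airbrush foliar spray (0.5 mL, 10 psi) onto cabbage leaf discs bearing about 15-30 aphids. Test solutions: compound dissolved in 1:1 acetone:methanol, brought to concentration with 0.1% tween 80 water.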

corn rust = experiment: protectant activity in vivo against corn rust; details: for pest or weed control at 400 µg/mL: read-out: control effect against corn rust (%), 400 mg/L, protectant activity
cucumber downy mildew = experiment: protectant activity in vivo against cucumber downy mildew; details: for pest or weed control at 400 µg/mL: read-out: control effect against cucumber downy mildew (%), 400 mg/L; for pest or weed control at 400 µg/mL / control effect against cucumber downy mildew (%): protectant activity
wheat powdery mildew = experiment: protectant activity in vivo against wheat powdery mildew; details: for pest or weed control at 400 µg/mL: read-out: control effect against wheat powdery mildew (%), 400 mg/L, protectant activity
[2] = Tetranychus cinnabarinus, 72 h, 600 mg/L
[3] = Myzus persicae, foliar, 48 h, 600 mg/L
[4] = 600 ppm, mortality after 72 hrs

For `Cc1ncnc(NCc2ccc(Oc3c(Cl)cc([N+](=O)[O-])cc3Cl)cc2)c1Cl` [CK65, reference compound], the pest or weed control at 600 µg/mL (carmine spider mite; [2]) was 0%, the pest or weed control at 600 µg/mL (armyworm; 72 h) was 0% and the pest or weed control at 10 µg/mL (Diamond back moth; 72 h, 10 mg/L) was 5%. For the same compound, the pest or weed control at 100 µg/mL (Diamond back moth; 72 h, 100 mg/L) was 35%, the pest or weed control at 600 µg/mL (Diamond back moth; 72 h) was 86% and the pest or weed control at 600 µg/mL [1, 3] was 0%. For the same compound, the pest or weed control at 400 µg/mL (corn rust; Zea mays, 168 h) was 0%, the pest or weed control at 400 µg/mL (cucumber downy mildew; Cucumis sativus, 168 h) was 0% and the pest or weed control at 400 µg/mL (wheat powdery mildew; Triticum aestivum, 168 h) was 0%.

For `CCc1ncnc(NCc2ccc(Oc3c(Cl)cc([N+](=O)[O-])cc3Cl)cc2)c1Cl` [CK66, reference compound], the pest or weed control at 600 µg/mL (carmine spider mite; [2]) was 0%, the pest or weed control at 600 µg/mL (armyworm; 72 h) was 0% and the pest or weed control at 600 µg/mL (Diamond back moth; 72 h) was 0%. It also gave a pest or weed control at 600 µg/mL [1, 3] of 0%, a pest or weed control at 400 µg/mL (corn rust; Zea mays, 168 h) of 0% and a pest or weed control at 400 µg/mL (cucumber downy mildew; Cucumis sativus, 168 h) of 0%. It also gave a pest or weed control at 400 µg/mL (wheat powdery mildew; Triticum aestivum, 168 h) of 0%.

`CCc1ncnc(NCCc2ccc(Oc3ccccc3)nc2)c1Cl` [III-181] was tested, and the “Insecticidal activity against carmine spider mite (% )” value (carmine spider mite; 100 mg/L) was 100%, the “Insecticidal activity against carmine spider mite (% )” value (carmine spider mite; 600 mg/L) was 100% and the “control against carmine spider mite” value (carmine spider mite; 100 ppm, mortality after 72 hrs) was 100%. The “control against carmine spider mite” value (carmine spider mite; [4]) was 100%, the “control (test results against armyworm)” value (armyworm; 600 ppm, mortality after 72 h) was 100% and the “control (test results against diamond back moth)” value (Diamond back moth; [4]) was 100%. The “Insecticidal activity against peach aphid (%)” value (from here on “Insecticidal activity … (%)”) ([1]; 10 mg/L) was 100%, the “Insecticidal activity … (%)” value ([1]; 100 mg/L) was 100% and the “Insecticidal activity … (%)” value ([1]; 600 mg/L) was 100%. For the same compound, the “control (test results against green peach aphid)” value ([1]; 10 ppm, death rate after 48 hrs) was 100%, the “control (test results against green peach aphid)” value ([1]; 100 ppm, death rate after 48 hrs) was 100% and the “control (test results against green peach aphid)” value ([1]; 600 ppm, death rate after 48 hrs) was 100%. The “protectant activity against corn rust in vivo” value (corn rust; 400 ppm) was 100%, the “control effect against cucumber downy mildew (%)” value (“control effect … (%)” below) (cucumber downy mildew; 25 mg/L) was 100% and the “control effect … (%)” value (cucumber downy mildew; 50 mg/L) was 100%. The “control effect … (%)” value (cucumber downy mildew; 100 mg/L) was 100%, the “control effect … (%)” value (cucumber downy mildew; 400 mg/L) was 100% and the “protectant activity against cucumber downy mildew in vivo” value (cucumber downy mildew; 25 ppm) was 100%. The “protectant activity against cucumber downy mildew in vivo” value (cucumber downy mildew; 50 ppm) was 100%, the “protectant activity against cucumber downy mildew in vivo” value (cucumber downy mildew; 100 ppm) was 100% and the “protectant activity against cucumber downy mildew in vivo” value (cucumber downy mildew; 400 ppm) was 100%. The “protectant activity against wheat powdery mildew in vivo” value (wheat powdery mildew; 400 ppm) was 100%.

`CCc1ncnc(NCCc2ccc(Oc3ncc(Cl)cc3Cl)cc2)c1Cl` [Compound I-583] gave a pest or weed control at 600 ppm (carmine spider mite; Tetranychus cinnabarinus, 72 h, 600 ppm, mortality after 72 hrs) of 100%, a pest or weed control at 600 ppm (armyworm; 72 h, 600 ppm, mortality after 72 h) of 100% and a pest or weed control at 600 ppm (Diamond back moth; 72 h, 600 ppm, mortality after 72 hrs, read-out: control (test results against diamond back moth)) of 100%. The pest or weed control at 10 ppm ([1]; Myzus persicae, foliar, 48 h, 10 ppm, death rate after 48 hrs) was 80 to 99%, the pest or weed control at 100 ppm ([1]; Myzus persicae, foliar, 48 h, 100 ppm, death rate after 48 hrs) was 100% and the pest or weed control at 600 ppm ([1]; Myzus persicae, foliar, 48 h, 600 ppm, death rate after 48 hrs) was 100%. For the same compound, the pest or weed control at 25 ppm (corn rust; Zea mays, 168 h, read-out: protectant activity against corn rust in vivo, 25 ppm) was 100%, the pest or weed control at 100 ppm (corn rust; Zea mays, 168 h, read-out: protectant activity against corn rust in vivo, 100 ppm) was 100% and the pest or weed control at 400 ppm (corn rust; Zea mays, 168 h, read-out: protectant activity against corn rust in vivo, 400 ppm) was 100%. The pest or weed control at 25 ppm (cucumber downy mildew; Cucumis sativus, 168 h, read-out: protectant activity against cucumber downy mildew in vivo, 25 ppm) was 100%, the pest or weed control at 50 ppm (cucumber downy mildew; Cucumis sativus, 168 h, read-out: protectant activity against cucumber downy mildew in vivo, 50 ppm) was 80 to 99% and the pest or weed control at 100 ppm (cucumber downy mildew; Cucumis sativus, 168 h, read-out: protectant activity against cucumber downy mildew in vivo, 100 ppm) was 100%. The pest or weed control at 400 ppm (cucumber downy mildew; Cucumis sativus, 168 h, read-out: protectant activity against cucumber downy mildew in vivo, 400 ppm) was 100%, the pest or weed control at 100 ppm (wheat powdery mildew; Triticum aestivum, 168 h, read-out: protectant activity against wheat powdery mildew in vivo, 100 ppm) was 80 to 99% and the pest or weed control at 400 ppm (wheat powdery mildew; Triticum aestivum, 168 h, read-out: protectant activity against wheat powdery mildew in vivo, 400 ppm) was 80 to 99%.

From US9770026B2, “Substituted pyrimidine compound and uses thereof” (Shenyang Sinochem Agrochemicals R&D Co., Ltd., priority 2012, dated 2017)
